According to patent US20150031686A1, “PHENYL-OXAZOLYL DERIVATIVES, PREPARATION METHOD THEREOF, AND RELATED APPLICATION OF THE PHENYL-OXAZOLYL DERIVATIVES AS AN IMPDH INHIBITOR” (INSTITUTE OF MEDICINAL BIOTECHNOLOGY, CHINESE ACADEMY OF …, priority 2012, published 2015):
Converted amounts (≈) assume the structure as drawn.

What was measured:
[1] = system: Coxsackie virus type B3 (COX-B3); test: Anti-Coxsackie virus type B3 (COX-B3) activity, CPE in Vero cells; type: cell-based; settings: Reed-Muench
Method: (§1) With Vero (African green monkey kidney) cells as viral hosts, inhibitory effects of the compounds of present invention on the grades of pathological lesions by coxsackievirus B3 (COX-B3), B6 (COX-B6) viruses in Vero cells were determined. The measured results of viral inhibitory activity of the compounds are shown in Table 3 and Table 4; wherein RBV is the control drug ribavirin. The inhibitory activities of the measured compounds against coxsackievirus B3, B6 were stronger than the control.
(§2) Screening of Anti-B3, B6 Type Coxsackie Viruses (COX-B3, COX-B6) Activity of the Samples
(§3) Prepare stock solutions of COX-B3 (or COX-B6) virus strains as well as tested compounds in DMSO before use. Before tests, dilute the stock solution with culture solution into a certain concentration and then dilute 3 times to make a total of eight dilutions. Use ribavirin (RBV) as positive control. Test procedures are as follows: seed Vero cells into 96-well culture plates, infect with 10^−5 Coxsackie virus of B3 (or B6) type, 24 hours later; adsorb subsequently for 2 hours, then discard the virus solution, add in the sample compounds and the positive control according to the abovementioned dilutions, set cell control wells and virus control wells simultaneously. When the cytopathic effect (CPE) of cells in the virus control wells reach 4+, observe CPE of the cells in each group. Use Reed-Muench method to calculate 50% inhibitory concentration (IC50) of the sample compounds against coxsackie virus B3 (or B6) type.

[2] = system: Coxsackie virus type B6 (COX-B6); test: Anti-Coxsackie virus type B6 (COX-B6) activity, CPE in Vero cells; type: cell-based; settings: Reed-Muench
Method: as §1, §2, §3

Row | SMILES | IC50 [1] [µg/mL] | IC50 [2] [µg/mL]
1 | COc1ccc2[nH]cc(CNc3ccc(-c4cnco4)c(OC)c3)c2c1 [Compound 52, N-(5-methoxy-1H-indol-3-ylmethyl)-3-methoxy-4-(oxazol-5-yl) aniline] | 3.25 (≈ 9.3 µM) | > 2.47
2 | COc1cc(NCc2cccnc2Cl)ccc1-c1cnco1 [Compound 59, N-(2-chloropyridin-3-ylmethyl)-3-methoxy-4-(oxazol-5-yl) aniline] | 1.9 (≈ 6.02 µM) | 1.05 (≈ 3.33 µM)
3 | CCC(=O)N(Cc1csc(C)c1)c1cc(-c2cnco2)ccc1OC [Compound 32] | 0.68 (≈ 1.91 µM) | 
4 | COc1ccc(-c2cnco2)cc1NCc1cccnn1 [Compound 38, N-(pyridazin-3-yl-methyl)-2-methoxy-5-oxazol-5-yl aniline] | 0.88 (≈ 3.12 µM) | 
5 | COc1ccc(-c2cnco2)cc1NCc1csc2c(C)c(Br)ccc12 [Compound 40, N-(6-bromo-7-methyl-benzothien-3-ylmethyl)-2-methoxy-5-oxazol-5-yl aniline] | 0.26 (≈ 0.606 µM) | 
6 | COc1ccc(-c2cnco2)cc1NCc1ccc(CCl)s1 [Compound 24, N-(5-chloromethylthien-2-ylmethyl)-2-methoxy-5-(oxazol-5-yl) aniline] | 0.57 (≈ 1.7 µM) | 
7 | COc1cc(NCc2c(Cl)nc(Cl)nc2Cl)ccc1-c1cnco1 [Compound 43, N-(2,4,6-trichloropyrimidin-5-ylmethyl)-3-methoxy-4-(oxazol-5-yl) aniline] | 1.03 (≈ 2.67 µM) | 
8 | COc1ccc(-c2cnco2)cc1NCc1ccsc1 [Compound 31, N-(thien-3-ylmethyl)-2-methoxy-5-(oxazol-5-yl) aniline] | 0.88 (≈ 3.07 µM) | 
9 | COc1ccc(-c2cnco2)cc1NCc1cc2cc(Cl)ccc2s1 [Compound 30, N-(5-chlorobenzothien-2-ylmethyl)-2-methoxy-5-(oxazol-5-yl) aniline] | 0.54 (≈ 1.46 µM) | 
10 | COc1cc(/N=C/c2cccs2)ccc1-c1cnco1 [Compound 9, N-(thien-2-ylmethylene)-3-methoxy-4-(oxazol-5-yl) aniline] | 12.8 (≈ 45.1 µM) | 12.8 (≈ 45.1 µM)
11 | COc1cc(CNc2ccc(-c3cnco3)c(OC)c2)cs1 [Compound 18, N-(5-methoxy-thien-3-ylmethyl)-3-methoxy-4(oxazol-5-yl) aniline] | 0.25 (≈ 0.79 µM) | 
12 | COc1cc(NCc2csc(-c3ccccc3)c2)ccc1-c1cnco1 [Compound 16, N-(5-phenylthien-3-ylmethyl)-3-methoxy-4-(oxazol-5-yl) aniline] | 0.45 (≈ 1.24 µM) | 
13 | COc1ccc(-c2cnco2)cc1NCc1ccc(CBr)s1 [Compound 25, N-(5-bromomethylthien-2-ylmethyl)-2-methoxy-5-(oxazol-5-yl) aniline] | 0.53 (≈ 1.4 µM) | 
14 | COc1cc(NCc2csc(Br)c2)ccc1-c1cnco1 [Compound 15, N-(5-bromothien-3-ylmethyl)-3-methoxy-4-(oxazol-5-yl) aniline] | 0.46 (≈ 1.26 µM) | 
15 | COc1cc(NN=C(C#N)C#N)ccc1-c1cnco1 [Compound 66] | 1.43 (≈ 5.35 µM) | 4.28 (≈ 16 µM)
16 | COc1ccc(-c2cnco2)cc1NCc1ccc(-c2cccc(Cl)c2)o1 [Compound 46, N-[5-(3-chlorophenyl)-furan-2-ylmethyl]-2-methoxy-5-(oxazol-5-yl) aniline] | 0.76 (≈ 2 µM) | 

Other lines, results leading:

Row | IC50 [1] [µg/mL] | IC50 [2] [µg/mL] | SMILES
17 | 0.57 (≈ 1.83 µM) | 3.15 (≈ 10.1 µM) | COc1ccc(CNc2ccc(-c3cnco3)c(OC)c2)cn1 [Compound 60, N-(6-methoxy-pyridin-3-ylmethyl)-3-methoxy-4-(oxazol-5-yl) aniline]
18 | 1.25 (≈ 3.83 µM) | > 0.82 | COc1cc(NC/C=C(/C)CCC=C(C)C)ccc1-c1cnco1 [Compound 71, N-(3,7-dimethyl-octa-2,6-dienyl)-3-methoxy-4-(oxazol-5-yl) aniline]
19 | 1.53 (≈ 5.7 µM) | 7.41 (≈ 27.6 µM) | COc1cc(NS(C)(=O)=O)ccc1-c1cnco1 [Compound 68]
20 | 4.28 (≈ 14.4 µM) | 17.2 (≈ 58.2 µM) | COc1cc(/N=C/c2ccc(F)cc2)ccc1-c1cnco1 [Compound 64, N-(4-Fluorophenylmethylidene)-3-methoxy-4-(oxazol-5-yl)-aniline]
21 | 0.24 (≈ 0.494 µM) |  | COc1cc(N(CCc2cc3ccccc3s2)C(=O)C(C)Br)ccc1-c1cnco1 (stereo not shown) [Compound 80, N-(2-benzothien-2-yl-ethyl)-N-(3-methoxy-4-oxazol-5-yl)-2-bromopropionamide]
22 | 0.48 (≈ 1.46 µM) |  | COc1cc(NCc2ccc(C(C)=O)s2)ccc1-c1cnco1 [Compound 101, N-(5-acetylthien-2-ylmethyl)-3-methoxy-4-oxazole-5-yl aniline]
23 | 0.44 (≈ 1.4 µM) |  | COc1cc(NCCc2ccc(C)s2)ccc1-c1cnco1 [Compound 72, N-[2-(5-methylthien-2-yl)-ethyl]-3-methoxy-4-(oxazol-5-yl) aniline]
24 | 155 (≈ 497 µM) |  | COc1cc(NCCCS(=O)(=O)O)ccc1-c1cnco1 [Compound 70, 3-[3-methoxy-4-(oxazol-5-yl)-anilino]-1-propanesulfonic acid]
25 | 0.4 (≈ 1.04 µM) |  | COc1cc(NCc2ccc(N3CCC(O)CC3)s2)ccc1-c1cnco1 [Compound 103]
26 | 0.23 (≈ 0.585 µM) |  | CCc1sc(CNc2ccc(-c3cnco3)c(OC)c2)cc1Br [Compound 97, N-(4-bromo-5-ethylthien-2-ylmethyl) 3-methoxy-4-(oxazol-5-yl) aniline]
27 | 0.26 (≈ 0.815 µM) |  | Cc1ccc(CNCc2ccc(-c3cnco3)c(Cl)c2)s1 [Compound 89, N-(5-methylthien-2-ylmethyl)-3-chloride-4-oxazol-5-yl benzylamine]
28 | 0.29 (≈ 0.761 µM) |  | COc1cc(NCCc2nnc3ccccc3c2Cl)ccc1-c1cnco1 [Compound 81, N-[2-(4-chlorocinnolin-3-yl)-ethyl]-3-methoxy-4-(oxazol-5-yl) aniline]
29 | 0.26 (≈ 0.665 µM) |  | Clc1cc(NCc2cccc3c2sc2ccccc23)ccc1-c1cnco1 [Compound 90, N-dibenzothien-4-ylmethyl-3-chloro-4-oxazol-5-yl aniline]
30 | 0.34 (≈ 0.768 µM) |  | COc1cc(CN(Cc2cc3cc(C)ccc3s2)S(C)(=O)=O)ccc1-c1cnco1 [Compound 84, N-(3-methoxy-4-oxazol-5-yl-benzyl)-N-(5-methyl-benzothien-2-ylmethyl)-methylsulfonamide]
31 | 0.63 (≈ 1.8 µM) |  | COc1cc(NCC2=COc3ccc(O)cc3C2)ccc1-c1cnco1 [Compound 92, 3-(3-methoxy-4-oxazol-5-ylanilino) methyl-4-H-benzopyran-6-ol]
32 | 0.35 (≈ 1.06 µM) |  | Cc1ccc(-c2cnco2)cc1NCc1c(O)ccc2ccccc12 [Compound 79, 1-(2-methyl-5-oxazol-5-ylanilino) methyl-naphthol-2]
33 | 222 (≈ 910 µM) | 222 (≈ 910 µM) | NC(=O)c1ncn([C@@H]2O[C@H](CO)[C@@H](O)[C@H]2O)n1 [RBV, ribavirin, reference compound]
34 | 0.98 (≈ 2.85 µM) |  | COc1cc(NS(=O)(=O)c2ccc(C)cc2)ccc1-c1cnco1 [Compound 69]
35 | 0.33 (≈ 0.857 µM) |  | COc1cc(NCCc2cc3cc(Cl)ccc3s2)ccc1-c1cnco1 [Compound 82, N-[2-(5-chlorobenzathien-2-yl)-ethyl]-3-methoxy-4-(oxazol-5-yl) aniline]
36 | 0.78 (≈ 1.88 µM) |  | COc1cc(NS(=O)(=O)c2cc([N+](=O)[O-])c(Cl)s2)ccc1-c1cnco1 [Compound 99, N-(5-chloro-4-nitro-thien-2-ylsulfonyl)-3-methoxy-4-oxazole-5-yl aniline]
37 | 0.44 (≈ 1.26 µM) |  | COc1cc(CNCc2csc3ccccc23)ccc1-c1cnco1 [Compound 85, N-(benzothien-3-ylmethyl)-3-methoxy-4-(oxazol-5-yl) benzylamine]
